Our source for the melting point values is patent US6982348B2, “Aminoethanol derivatives” (Takeda Pharmaceutical Company Limited, priority 2001, dated 2006).

Broadly, the melting point is the temperature of the solid-liquid transition.

Where a name gives a salt, the structure may show the parent alone.

Regarding `CC(C)c1cccc(C[C@@H](NC(=O)c2ccc(F)c3ccccc23)[C@@H](O)c2ccc(F)cc2)c1` (racemic) [Example 324, 4-fluoro-N-[(1RS,2SR)-2-(4-fluorophenyl)-2-hydroxy-1-(3-isopropylbenzyl)ethyl]naphthalene-1-carboxamide], the melting point was in the range of 159 to 160 °C.
In the case of `CC(C)(C)c1ccc(C[C@@H](NC(=O)c2ccc(F)c3ccccc23)[C@@H](O)c2ccc(F)cc2)cc1` (racemic) [Example 357, N-[(1RS,2SR)-1-(4-tert-butylbenzyl)-2-(4-fluorophenyl)-2-hydroxyethyl]-4-fluoro-1-naphthamide] it was 149 to 150 °C; in that of `O=C(N[C@H](Cc1ccc(C(F)(F)F)cc1)[C@@H](O)c1ccc(F)cc1)c1cccc2ccccc12` (racemic) [Example 35, N-[(1RS,2SR)-2-(4-fluorophenyl)-2-hydroxy-1-[4-(trifluoromethyl)benzyl]ethyl]naphthalene-1-carboxamide], 214 to 216 °C.
The same measure for `O=C(N[C@H](Cc1cccc(C(F)(F)F)c1)[C@@H](O)c1ccc(F)cc1)c1ccc(F)c2ccccc12` (racemic) [Example 137, 4-fluoro-N-((1RS,2SR)-2-(4-fluorophenyl)-2-hydroxy-1-((3-(trifluoromethyl)phenyl)methyl)ethyl)-1-naphthalenecarboxamide]: 193 to 194 °C; for `CC(C)(C)OC(=O)N[C@H](Cc1ccc(C(F)(F)F)cc1)[C@@H](O)c1ccc(F)cc1` (racemic) [Example 28, 1,1-dimethylethyl (1RS,2SR)-2-(4-fluorophenyl)-2-hydroxy-1-((4-(trifluoromethyl)phenyl)methyl)ethylcarbamate]: 158 to 159 °C.
The same measure for `O=C(N[C@H](Cc1ccc(C(F)(F)F)cc1)[C@@H](O)c1ccc(F)cc1)c1cccc2cccnc12` (racemic) [Example 80, N-((1RS,2SR)-2-(4-fluorophenyl)-2-hydroxy-1-((4-(trifluoromethyl)phenyl)methyl)ethyl)-8-quinolinecarboxamide]: 83 to 84 °C; for `O=C(O)CCC(=O)O[C@H](c1ccc(F)cc1)[C@H](Cc1ccc2c(c1)OC(F)(F)C(F)(F)O2)NC(=O)c1ccc(F)c2ccccc12` (racemic) (as salt: succinate) [Example 396, (1RS,2SR)-1-(4-fluorophenyl)-2-[(4-fluoro-1-naphthoyl)amino]-3-(2,2,3,3-tetrafluoro-2,3-dihydro-1,4-benzodioxin-6-yl)propyl hydrogen succinate]: 196 to 197 °C; for `NC(=O)c1ccc([C@H](O)[C@@H](Cc2cccc(OC(F)(F)C(F)F)c2)NC(=O)c2cccc3c2C=CCCC3)cc1` (racemic) [Example 311, N-[(1RS,2SR)-2-[4-(aminocarbonyl)phenyl]-2-hydroxy-1-[3-(1,1,2,2-tetrafluoroethoxy)benzyl]ethyl]-6,7-dihydro-5H-benzo[a]cycloheptene-1-carboxamide]: 197 to 199 °C.
In turn, `O=C(N[C@H](Cc1ccc(CC(F)(F)C(F)(F)F)cc1)[C@@H](O)c1cccc(Cl)c1)c1ccc(F)c2ccccc12` (racemic) [Example 373, N-[(1RS,2SR)-1-[4-(2,2,3,3,3-pentafluoropropyl)benzyl]-2-(3-chlorophenyl)-2-hydroxyethyl]-4-fluoro-1-naphthamide] returned a melting point of 191 to 192 °C.
As for `O=C(NC(Cc1ccc(C(F)(F)F)cc1)C(O)c1ccc(F)cc1)C1CCCC1` (racemic) [Example 5, N-[2-(4-fluorophenyl)-2-hydroxy-1-[[4-(trifluoromethyl)phenyl]methyl]ethyl]cyclopentanecarboxamide], the melting point lay within 139 to 155 °C.
The same measure for `CC(C)(C)C(F)(F)c1ccc(C[C@@H](NC(=O)c2ccc(F)c3ccccc23)[C@@H](O)c2cccc(Cl)c2)cc1` (racemic) [Example 379, N-{(1RS,2SR)-2-(3-chlorophenyl)-1-[4-(1,1-difluoro-2,2-dimethylpropyl)benzyl]-2-hydroxyethyl}-4-fluoro-1-naphthamide]: 104 to 106 °C; for `O=C(N[C@H](Cc1cccc(OC(F)(F)C(F)F)c1)[C@@H](O)c1cccc(F)n1)c1ccc(F)c2ccccc12` (racemic) [Example 266, 4-fluoro-N-{(1RS,2RS)-2-(6-fluoropyridin-2-yl)-2-hydroxy-1-[3-(1,1,2,2-tetrafluoroethoxy)benzyl]ethyl}-1-naphthamide]: 185 to 186 °C.
In the case of `O=C(NCc1ccccc1)c1ccc([C@H](O)[C@@H](Cc2cccc(OC(F)(F)C(F)F)c2)NC(=O)c2cccc3c2C=CCCC3)cc1` (racemic) [Example 316, N-[(1RS,2SR)-2-[4-[(benzylamino)carbonyl]phenyl]-2-hydroxy-1-[3-(1,1,2,2-tetrafluoroethoxy)benzyl]ethyl]-6,7-dihydro-5H-benzo[a]cycloheptene-1-carboxamide] it was 216 to 217 °C; in that of `O=C(N[C@H](Cc1cccc(C=C(F)C(F)F)c1)[C@@H](O)c1ccc(F)cc1)c1cccc2c1C=CCCC2` (racemic) [Example 335, N-[(1RS,2SR)-2-(4-fluorophenyl)-2-hydroxy-1-[3-(2,3,3-trifluoro-1-propenyl)benzyl]ethyl]-6,7-dihydro-5H-benzo[a]cycloheptene-1-carboxamide], 165 to 167 °C; in that of `CC(C)C(F)(F)Cc1ccc(C[C@@H](NC(=O)OC(C)(C)C)[C@@H](O)c2cccc(Cl)c2)cc1` (racemic) [Example 352, tert-butyl N-[(1RS,2SR)-2-(3-chlorophenyl)-1-[4-(2,2-difluoro-3-methylbutyl)benzyl]-2-hydroxyethyl]carbamate], 139 to 141 °C.
Turning to `CC(C)(C)c1cccc(C[C@@H](NC(=O)c2cccc3c(Cl)cccc23)[C@@H](O)c2cccc(Cl)c2)c1` (racemic) [Example 371, N-[(1RS,2SR)-1-[3-(tert-butyl)benzyl]-2-(3-chlorophenyl)-2-hydroxyethyl]-5-chloro-1-naphthamide], the melting point fell in the range of 91 to 93 °C.
In the case of `Cc1oc(C(C)C)c(C(=O)N[C@H](Cc2ccc(C(F)(F)F)cc2)[C@@H](O)c2ccc(F)cc2)c1-c1ccc(F)cc1` (racemic) [Example 73, 4-(4-fluorophenyl)-N-[(1RS,2SR)-2-(4-fluorophenyl)-2-hydroxy-1-[4-(trifluoromethyl)benzyl]ethyl]-5-methyl-2-(1-methylethyl)furan-3-carboxamide] it was 134 to 136 °C.
The same measure for `O=C(NC(Cc1ccc(C(F)(F)F)cc1)C(O)c1ccc(F)cc1)c1cccnc1` (racemic) [Example 21, N-[2-(4-fluorophenyl)-2-hydroxy-1-[[4-(trifluoromethyl)phenyl]methyl]ethyl]-3-pyridinecarboxamide]: 160 to 165 °C; for `O=Cc1ccccc1-c1ccc([C@H](O)[C@@H](Cc2cccc(OC(F)(F)C(F)F)c2)NC(=O)c2cccc3c2C=CCCC3)cc1` (racemic) [Example 301, N-[(1RS,2SR)-2-(2′-formyl[1,1′-biphenyl]-4-yl)-2-hydroxy-1-[3-(1,1,2,2-tetrafluoroethoxy)benzyl]ethyl]-6,7-dihydro-5H-benzo[a]cycloheptene-1-carboxamide]: 195 to 196 °C; for `O=C(CCc1ccccc1)N[C@H](Cc1ccc(C(F)(F)F)cc1)[C@@H](O)c1ccc(F)cc1` (racemic) [Example 48, N-((1RS,2SR)-2-(4-fluorophenyl)-2-hydroxy-1-((4-(trifluoromethyl)phenyl)methyl)ethyl)-3-phenylpropanamide]: 144 to 145 °C.
The same measure for `O=C(N[C@H](Cc1ccc(C(F)(F)F)cc1)[C@@H](O)c1ccc(F)cc1)c1ccc(Oc2ccc(Cl)cc2)cc1` (racemic) [Example 90, 4-(4-chlorophenoxy)-N-[(1RS,2SR)-2-(4-fluorophenyl)-2-hydroxy-1-[4-(trifluoromethyl)benzyl]ethyl]benzenecarboxamide]: 188 to 189 °C.
`O=C(N[C@H](Cc1ccc(C(F)(F)F)cc1)[C@@H](O)c1ccc(F)cc1)c1cccc2c1-c1ccccc1C2=O` (racemic) [Example 61, N-((1RS,2SR)-2-(4-fluorophenyl)-2-hydroxy-1-((4-(trifluoromethyl)phenyl)methyl)ethyl)-9-oxo-9H-fluorene-4-carboxamide] gave a melting point of 231 to 232 °C.
The same measure for `O=C(N[C@H](Cc1ccc(C(F)(F)F)cc1)[C@@H](O)c1ccc(F)cc1)c1cccc2c1CCCC2` (racemic) [Example 33, N-[(1RS,2SR)-2-(4-fluorophenyl)-2-hydroxy-1-[4-(trifluoromethyl)benzyl]ethyl]-5,6,7,8-tetrahydronaphthalene-1-carboxamide]: 219 to 221 °C.
In the case of `O=C(Nc1ccc(C(F)(F)F)cc1)N[C@H](Cc1ccc(C(F)(F)F)cc1)[C@@H](O)c1ccc(F)cc1` (racemic) [Example 119, N-((1RS,2SR)-2-(4-fluorophenyl)-2-hydroxy-1-((4-(trifluoromethyl)phenyl)methyl)ethyl)-N′-(4-(trifluoromethyl)phenyl)urea] it was 160 to 161 °C.
For `O=C(N[C@H](Cc1ccccc1C(F)(F)F)[C@@H](O)c1ccc(F)cc1)c1ccc(F)c2ccccc12` (racemic) [Example 141, 4-fluoro-N-((1RS,2SR)-2-(4-fluorophenyl)-2-hydroxy-1-((2-(trifluoromethyl)phenyl)methyl)ethyl)-1-naphthalenecarboxamide], the melting point fell in the range of 200 to 201 °C.
The same measure for `O=C(N[C@H](Cc1cccc(OC(F)(F)C(F)F)c1)[C@@H](O)c1ccc(-c2ccccc2Cl)cc1)c1cccc2c1C=CCCC2` (racemic) [Example 293, N-[(1RS,2SR)-2-(2′-chloro[1,1′-biphenyl]-4-yl)-2-hydroxy-1-[3-(1,1,2,2-tetrafluoroethoxy)benzyl]ethyl]-6,7-dihydro-5H-benzo[a]cycloheptene-1-carboxamide]: 172 to 173 °C.
The same measure for `O=C(N[C@H](Cc1cccc(CC(F)(F)C(F)F)c1)[C@@H](O)c1ccc(F)cc1)c1ccc(F)c2ccccc12` (racemic) [Example 339, 4-fluoro-N-[(1RS,2SR)-2-(4-fluorophenyl)-2-hydroxy-1-[3-(2,2,3,3-tetrafluoropropyl)benzyl]ethyl]naphthalene-1-carboxamide]: 172 to 173 °C.
